From US9956236B2, “Methods for increasing immune responses using agents that directly bind to and activate IRE-1” (Cornell University, priority 2011, dated 2018) come the findings set out here.

Structures are written as SMILES.

The target in one assay is recombinant IRE1 protein (Homo sapiens, UniProt O75460). The assay can be described thus: In vitro fluorescent splicing reporter assay with recombinant IRE1 protein. Format: biochemical. The conditions noted are these: doses of PIs ranging from 20 uM to 0.63 uM; fluorescence over time.
For a further assay, the system named is IL-6. The assay can be described thus: IL-6 production with Nelfinavir and synthetic TLR4 agonist MPLA. Format: cell-based. The conditions noted are these: Nelfinavir plus TLR4 agonist MPLA compared to TLR4 agonist alone. The source says: FIG. 1. HIV-protease inhibitors (PIs) trigger robust IRE1 and XBP1 activation and synergize with TLR4 activation to produce cytokines and co-stimulatory molecules. A) XBP1 mRNA maturation (XBP1s) in J774 cells stimulated with dose dependent concentrations of HIV-PIs (similar data were obtained in primary mouse M0s, and various M0 cell lines of human and mouse origin). B) Cell extracts of cells stimulated with Tunicamycin (TM) or HIV-protease inhibitors were monitored for IRE1 activation by phosphorylation in a Phos-tag SDS-PAGE gel, CHOP induction and ATF6a processing. C) Realtime PCR of CHOP induction by the ER-stress inducer TM and the HIV-PI Nelfinavir (NFR) was analyzed in PERK proficient and deficient MEFs. […]
XBP1 mRNA maturation (XBP1s) in J774 cells stimulated with dose dependent concentrations of HIV-PIs (similar data were obtained in primary mouse M0s, and various M0 cell lines of human and mouse origin) see FIG. 1, panel A. Cell extracts of cells stimulated with Tunicamycin (TM) or HIV-protease inhibitors were monitored for IRE1 activation by phosphorylation in a Phos-tag SDS-PAGE gel, CHOP induction and ATF6a processing, see FIG. 1, panel B. Realtime PCR of CHOP induction by the ER-stress inducer TM and the HIV-PI Nelfinavir (NFR) was analyzed in PERK proficient and deficient MEFs see FIG. 1, panel C.

The test system of another assay is CD86 and CD40. The assay can be described thus: Co-stimulatory ligand (CD86 and CD40) expression with Nelfinavir and synthetic TLR4 agonist MPLA. Format: cell-based. The conditions noted are these: Nelfinavir plus TLR4 agonist MPLA compared to TLR4 agonist alone.

Chain of recombinant IRE1 protein (O75460 19-977, species assumed): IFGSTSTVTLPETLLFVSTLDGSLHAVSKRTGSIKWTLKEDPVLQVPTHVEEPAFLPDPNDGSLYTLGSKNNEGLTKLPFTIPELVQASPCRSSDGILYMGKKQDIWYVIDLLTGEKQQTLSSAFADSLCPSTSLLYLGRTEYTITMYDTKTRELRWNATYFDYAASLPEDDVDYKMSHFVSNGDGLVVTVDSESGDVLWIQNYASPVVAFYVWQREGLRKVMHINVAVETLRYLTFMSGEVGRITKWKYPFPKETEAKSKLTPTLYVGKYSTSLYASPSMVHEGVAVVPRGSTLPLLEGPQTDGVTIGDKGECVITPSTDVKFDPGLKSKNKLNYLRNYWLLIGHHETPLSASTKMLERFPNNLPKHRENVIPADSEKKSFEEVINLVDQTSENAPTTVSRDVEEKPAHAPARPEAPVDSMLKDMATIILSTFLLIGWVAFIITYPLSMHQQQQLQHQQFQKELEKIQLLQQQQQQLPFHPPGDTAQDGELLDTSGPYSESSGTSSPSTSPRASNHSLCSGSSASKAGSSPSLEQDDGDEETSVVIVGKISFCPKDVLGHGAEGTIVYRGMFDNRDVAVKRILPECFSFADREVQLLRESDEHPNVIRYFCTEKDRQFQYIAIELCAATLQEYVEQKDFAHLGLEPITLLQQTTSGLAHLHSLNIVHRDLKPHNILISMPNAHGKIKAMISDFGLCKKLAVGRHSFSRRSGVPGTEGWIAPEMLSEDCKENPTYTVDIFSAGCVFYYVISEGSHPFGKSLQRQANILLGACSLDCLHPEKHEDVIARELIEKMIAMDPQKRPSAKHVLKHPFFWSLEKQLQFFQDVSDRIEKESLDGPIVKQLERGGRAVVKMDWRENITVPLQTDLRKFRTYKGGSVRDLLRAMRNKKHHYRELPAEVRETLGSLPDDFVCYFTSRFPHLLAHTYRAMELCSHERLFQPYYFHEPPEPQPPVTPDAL

For `CC(C)c1nc(CN(C)C(=O)N[C@H](C(=O)N[C@@H](Cc2ccccc2)C[C@H](O)[C@H](Cc2ccccc2)NC(=O)OCc2cncs2)C(C)C)cs1` [ritonivir, ritonavir], at recombinant IRE1 protein, the “induction of xbp1 splicing” value is listed as “marked induction”.
Consider `CC(C)CN(C[C@@H](O)[C@H](Cc1ccccc1)NC(=O)O[C@H]1CCOC1)S(=O)(=O)c1ccc(N)cc1` [amprenivir, amprenavir], for which the “induction of xbp1 splicing” value at recombinant IRE1 protein is recorded as “not”.
On to `Cc1c(O)cccc1C(=O)N[C@@H](CSc1ccccc1)[C@H](O)CN1C[C@H]2CCCC[C@H]2C[C@H]1C(=O)NC(C)(C)C` [Nelfinavir], for which the IL-6 production result with IL-6 is on record as “Increased”. In addition, in the assay with CD86 and CD40, the CD40 expression result was “Increased” and the CD86 expression result is listed as “Increased”. The “induction of xbp1 splicing” value on recombinant IRE1 protein is “marked induction”.
